From patent US20140288040A1, “SUBSTITUTED BENZYLAMINE COMPOUNDS, THEIR USE IN MEDICINE, AND IN PARTICULAR THE TREATMENT OF HEPATITIS C VIRUS (HCV) INFECTION” (ASTEX THERAPEUTICS LIMITED, priority 2011, published 2014)
pEC50, pIC50: −log10 of the molar value. Counter-ions that a name gives are not always drawn. Like-named read-outs stand apart in the source and are kept apart here.

Key:
[1] = molecular target: T1, HCV NS3 protease (full length NS34a) (Hepatitis C virus genotype 1b, UniProt P26663); assay: HCV NS3 protease assay (FRET, full length NS34a); assay type: biochemical; conditions: for inhibition at 0.03 µM: read-out: Activity % inhibition @ 0.03 μM, 0.03 μM compound; for inhibition at 0.01 µM: read-out: Activity % inhibition @ 0.01 μM, 0.01 μM compound
T1 construct: The protease activity of the full length NS34a was measured using a FRET-based assay; made in house
T1 sequence (P26663 1658-1711): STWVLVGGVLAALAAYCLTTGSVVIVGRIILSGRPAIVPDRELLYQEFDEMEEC
T1 sequence (P26663 1027-1657): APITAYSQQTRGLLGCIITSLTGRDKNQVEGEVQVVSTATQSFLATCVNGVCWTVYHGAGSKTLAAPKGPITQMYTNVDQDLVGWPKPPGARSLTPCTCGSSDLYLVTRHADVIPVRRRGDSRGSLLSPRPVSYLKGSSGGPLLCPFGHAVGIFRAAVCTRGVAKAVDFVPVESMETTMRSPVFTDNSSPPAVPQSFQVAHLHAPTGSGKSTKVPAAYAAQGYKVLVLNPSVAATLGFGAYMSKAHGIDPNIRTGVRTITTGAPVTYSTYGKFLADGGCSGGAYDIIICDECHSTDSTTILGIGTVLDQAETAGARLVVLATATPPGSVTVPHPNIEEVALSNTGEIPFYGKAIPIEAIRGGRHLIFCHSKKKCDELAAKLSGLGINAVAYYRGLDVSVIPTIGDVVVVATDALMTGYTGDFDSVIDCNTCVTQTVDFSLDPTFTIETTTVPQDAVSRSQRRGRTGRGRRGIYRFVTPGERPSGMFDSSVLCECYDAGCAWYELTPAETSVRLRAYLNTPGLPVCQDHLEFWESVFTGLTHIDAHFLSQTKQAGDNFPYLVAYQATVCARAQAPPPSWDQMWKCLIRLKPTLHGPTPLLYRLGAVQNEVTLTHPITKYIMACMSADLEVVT
Procedure, shortened: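 FRET readout over 30 minutes at room temperature, with IC50 fitted to initial rates from replicate curves. Enzyme was full-length NS34a; substrate a peptide from the NS4AB cleavage site labelled with QXL520 and 5-FAMsp; buffer 50 mM Tris pH8 containing 20 mM DTT, 1% CHAPS, 10% glycerol and 5% DMSO.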

[2] = tested on: HCV subgenomic replicon in Huh-7 cells; assay: Replicon assay, EC50 luciferase readout; assay type: cell-based, hepatitis C virus (HCV); conditions: Hepatitis C virus; for EC50: Huh-7, 72 h, Huh-7 replicon cells, 72 h, single value, or second value of a pair x:y, read-out: Activity EC50 (μM) (EC50 luciferase readout)
Procedure, shortened: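 Huh-7 cells carrying a subgenomic HCV replicon (NS3-NS5b, firefly luciferase-neo fusion) were treated with compound for 72 h at 37°C, 5% CO2. EC50 derived from Bright-Glo luciferase signal as a proxy for HCV RNA; cell viability measured in parallel by Alamar blue.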

[3] = protease activity of full length NS34a, FRET peptide substrate, read-out: Activity IC50
[4] = IC50 values of 10-150 μM against the protease activity of the full length NS34a, or at least 40% inhibition of protease activity at a concentration of 100 μM

Row | SMILES | pIC50 [1, 3] | EC50 [2] [µM] | further results
1 | CC[C@@H](N[C@@H](C)CC(N)=O)c1ccc(Cl)c(Oc2ccc3c(c2)OCC3)c1F [Example 233] | 6.96 | 0.079 | 
2 | CC[C@@H](N[C@@H](C)CC(=O)NC1CNC1)c1ccc(Cl)c(Oc2ccccc2)c1F [Example 234] |  | 7.3 | inhibition at 0.03 µM [1]: 57%
3 | CC[C@@H](N[C@@H](C)CC(=O)N1CCNCC1)c1ccc(Cl)c(Oc2ccccc2)c1F [Example 235] | 6.37 | 0.6 | 
4 | CC[C@@H](N[C@@H](C)CC(=O)N1CCCNCC1)c1ccc(Cl)c(Oc2ccccc2)c1F [Example 236] |  | 1.7 | pIC50 [1, 4]: 3.82 to 5.00; inhibition at 3 µM ([1]; read-out: Activity % inhibition @ 3 μM, 3 μM compound): 50%
5 | CC[C@@H](N[C@@H](C)CC(N)=O)c1ccc(Cl)c(Oc2ccc(C#N)c(C)c2)c1F [Example 237] | 7.06 | 0.031 | 
6 | CC[C@@H](N[C@@H](C)CC(=O)NCCN)c1ccc(Cl)c(Oc2ccc(N)c(C)c2)c1F [Example 238B, (S)—N-(2-Amino-ethyl)-3-{(R)-1-[3-(4-amino-3-methyl-phenoxy)-4-chloro-2-fluoro-phenyl]-propylamino}-butyramide] |  | 0.03 | inhibition at 0.03 µM [1]: 58%; pEC50 ([2]; Huh-7, replicon assay, set in line with previous observations, read-out: pre-determined EC50 set for the combination experiments): 7.52
7 | CC[C@@H](N[C@H](C)CC(=O)NCCN)c1ccc(Cl)c(Oc2ccc(N)c(C)c2)c1F [Example 239] |  | 0.97 | inhibition at 0.03 µM [1]: 41%
8 | CC[C@@H](N[C@@H](C)CC(=O)NCCCN)c1ccc(Cl)c(Oc2ccccc2)c1F [Example 240] |  | 8.9 | inhibition at 0.01 µM [1]: 42%
9 | CC[C@@H](N[C@@H](C)CC(=O)NCCNC)c1ccc(Cl)c(Oc2ccccc2)c1F [Example 241] |  | 0.98 | inhibition at 0.01 µM [1]: 47%
10 | CC[C@@H](N[C@H](C)CC(=O)NCCN(C)C)c1ccc(Cl)c(Oc2ccccc2)c1F [Example 242] | 5.41 | 0.89 | 
11 | CC[C@@H](N[C@@H](C)CC(N)=O)c1ccc(Cl)c(Oc2ccc(NC(C)=O)c(C)c2)c1F [Example 244, (S)-3-{(R)-1-[3-(4-Acetylamino-3-methyl-phenoxy)-4-chloro-2-fluoro-phenyl]-propylamino}-butyramide.hydrochloride] | 6.33 | 0.099 | 
12 | CC[C@@H](N[C@@H](C)CC(N)=O)c1ccc(Cl)c(Oc2ccc(C#N)nc2)c1F [Example 246] | 6.77 | > 10 | 
13 | CC[C@@H](N[C@@H](C)CC(N)=O)c1ccc(Cl)c(Oc2ccc(C(N)=O)nc2)c1F [Example 249] | 6.42 | 4.6 | 
14 | CC[C@@H](N[C@@H](C)CC(=O)N[C@H]1CCNC1)c1ccc(Cl)c(Oc2ccccc2)c1F [Example 250] | 6.02 | 1 | 
15 | CC[C@@H](N[C@@H](C)CC(=O)N[C@@H](C)CN)c1ccc(Cl)c(Oc2ccccc2)c1F [Example 251] | 7.21 | 1.8 | 
16 | CC[C@@H](N[C@@H](C)CC(=O)NC(C)(C)CN)c1ccc(Cl)c(Oc2ccccc2)c1F [Example 252] | 5.72 | 0.88 | 
17 | CC[C@@H](N[C@@H](C)CC(N)=O)c1ccc(Cl)c(Oc2ccc([N+](=O)[O-])c(OC)c2)c1F [Example 253] | 6.39 | 0.13 | 
18 | CC[C@@H](N[C@@H](C)CC(N)=O)c1ccc(Cl)c(Oc2ccc(N)c(OC)c2)c1F [Example 255] | 6.64 | 0.012 | 
19 | CC[C@@H](N[C@@H](C)CC(N)=O)c1ccc(Cl)c(Oc2ccc(N)c(C(F)(F)F)c2)c1F [Example 260] | 6.77 | 0.043 | 
20 | CC[C@@H](N[C@@H](C)CC(=O)N[C@@H]1CCNC1)c1ccc(Cl)c(Oc2ccccc2)c1F [Example 263] | 6.41 | 1.6 | 
21 | CC[C@@H](N[C@@H](C)CC(=O)NC1CCNCC1)c1ccc(Cl)c(Oc2ccccc2)c1F [Example 264] | 5.34 | 0.6 | 
22 | CC[C@@H](N[C@@H](C)CC(=O)NCCNCc1ccccc1)c1ccc(Cl)c(Oc2ccccc2)c1F [Example 265] | 5.96 | 0.47 | 
23 | CC[C@@H](N[C@@H](C)CC(N)=O)c1ccc(Cl)c(Oc2ccc(N)c(Cl)c2)c1F [Example 266C, (S)-3-{(R)-1-[3-(4-Amino-3-chloro-phenoxy)-4-chloro-2-fluoro-phenyl]-propyl-amino}-butyramide.dihydrochloride] | 7.06 | 0.023 | 
24 | CC[C@@H](N[C@H](C)CC(N)=O)c1ccc(Cl)c(Oc2ccc(N)c(Cl)c2)c1F [Example 267] | 6.32 | > 10 | 

Row | SMILES | pIC50 [1, 3] | EC50 [2] [µM] | further results
25 | N[C@H]1CC[C@H](NCc2ccc(Cl)c(Oc3ccccc3)c2F)CC1 [Example 271, trans-N-(4-Chloro-2-fluoro-3-phenoxy-benzyl)-cyclohexane-1,4-diamine. dihydrochloride] | 6.59 | 0.34 | 
26 | Cc1ccc(CN[C@H]2CC[C@H](N)CC2)c(F)c1Oc1ccccc1 [Example 272, trans-N-(2-Fluoro-4-methyl-3-phenoxy-benzyl)-cyclohexane-1,4-diamine.dihydrochloride] | 6.06 | 5.3 | 
27 | CCN(Cc1ccc(Cl)c(Oc2ccccc2)c1F)[C@H]1CC[C@H](N)CC1 [Example 273B, trans-N-(4-Chloro-2-fluoro-3-phenoxy-benzyl)-N-ethyl-cyclohexane-1,4-diamine.dihydrochloride] | 5.64 | 0.76 | 
28 | CC[C@H](Nc1ncc[nH]1)c1ccc(Cl)c(Oc2ccccc2)c1F [Example 275, [(S)-1-(4-Chloro-2-fluoro-3-phenoxy-phenyl)-propyl]-(1H-imidazol-2-yl)-amine.hydrochloride] | 6.39 | > 10 | 
29 | C[C@@H](CC(=O)NCCN)N[C@H](CC1CCOCC1)c1ccc(Cl)c(Oc2ccccc2)c1F [Example 277, (S)—N-(2-Amino-ethyl)-3-[(R)-1-(4-chloro-2-fluoro-3-phenoxy-phenyl)-2-(tetrahydro-pyran-4-yl)-ethylamino]-butyramide.dihydrochloride] | 6.96 | 1 | 
30 | N[C@H]1CC[C@H](NCc2cccc(Oc3ccccc3)c2)CC1 [Example 280] | 5.28 | 0.4 | 
31 | N[C@H]1CC[C@@H](NCc2cccc(Oc3ccccc3)c2)CC1 [Example 281] | 5.00 | 0.79 | 
32 | N[C@H]1CC[C@H](NCc2ccc(F)c(Oc3ccccc3)c2F)CC1 [Example 282] | 6.14 | 0.37 | 
33 | N[C@H]1CC[C@@H](NCc2ccc(F)c(Oc3ccccc3)c2F)CC1 [Example 283] | 6.12 | 0.27 | 
34 | CS(=O)(=O)Nc1cccc(Oc2c(F)ccc(CN[C@H]3CC[C@H](N)CC3)c2F)c1 [Example 284] | 5.85 | > 10 | 
35 | Cc1cc(Oc2c(F)ccc(CN[C@H]3CC[C@H](N)CC3)c2F)ccc1N [Example 287] | 6.36 | 6.5 | 
36 | Cc1cc(Oc2c(F)ccc(CN[C@H]3CC[C@@H](N)CC3)c2F)ccc1N [Example 288] | 5.85 | 1.4 | 
37 | N[C@H]1CC[C@H](CNCc2ccc(Cl)c(Oc3ccccc3)c2F)CC1 [Example 289] | 5.96 | 0.18 | 
38 | N[C@H]1CC[C@H](NCc2ccc(F)c(Oc3ccccc3)c2Cl)CC1 [Example 290] | 5.47 | 10 | 
39 | CC[C@@H](N[C@@H](C)CC(N)=O)c1ccc(Cl)c(Oc2ccc(C)nc2)c1F [Example 313] | 6.82 | > 10 | 
40 | CCNCCNC(=O)C[C@H](C)N[C@H](CC)c1ccc(Cl)c(Oc2ccccc2)c1F [Example 316] | 6.40 | > 10 | 
41 | CC[C@@H](N[C@@H](C)CC(N)=O)c1ccc(Cl)c(Oc2ccc(-c3cnco3)c(C)c2)c1F [Example 317] | 6.35 | 2.7 | 
42 | CC[C@@H](N[C@@H](C)CC(=O)N[C@H]1C[C@H](N)C1)c1ccc(Cl)c(Oc2ccccc2)c1F [Example 319] | 5.46 | 8.6 | 
43 | CC[C@@H](N[C@@H](C)CC(N)=O)c1ccc(Cl)c(Oc2ccc3c(c2)C(C)(C)CN3)c1F [Example 322] | 6.57 | 1.2 | 
44 | CC[C@H](N[C@@H](C)CC(N)=O)c1ccc(Cl)c(Oc2ccccc2)c1Cl [Example 324] | 5.74 | > 10 | 
45 | CC[C@H](N[C@H](C)CC(N)=O)c1ccc(Cl)c(Oc2ccccc2)c1Cl [Example 325] |  | > 10 | pIC50 [1, 4]: 3.82 to 5.00
46 | C[C@@H](CC(=O)NCCN)NCc1ccc(Cl)c(Oc2ccccc2)c1F [Example 329] |  | 4 | inhibition at 0.03 µM [1]: 57%
47 | CC[C@@H](N[C@@H](C)C(=O)NCCCN)c1ccc(Cl)c(Oc2ccccc2)c1F [Example 331] |  | > 10 | inhibition at 0.03 µM [1]: 49.5%
48 | CC[C@@H](N[C@@H](C)CC(N)=O)c1ccc(Cl)c(Oc2ccc(N)c(F)c2)c1F [Example 333] | 7.21 | 0.057 | 
